Results reported in patent US8465960B2 (priority 2007, dated 2013).

Legend:
[1] = target: influenza B virus NA with Asp198Asn mutation (Influenza B virus, UniProt P27907, D196N)
[2] = tested on: influenza B virus NA with Gly402Ser mutation; type: biochemical
[3] = target: influenza B virus NA with Ile222Thr mutation (UniProt P03474, I221T, species not given)
[4] = target: influenza B virus NA with Ser250Gly mutation (Influenza B virus, UniProt P27907, S248G); type: biochemical

For `CCOC(=O)C1=C[C@@H](OC(CC)CC)[C@H](NC(C)=O)[C@@H](N)C1` [oseltamivir], the “reduction in drug sensitivity compared with median IC50 of type B viruses” value [1] was 3-4 fold, the “increase of IC50 of posttreatment isolate compared to virus isolated before treatment” value [2] was 3.9 fold and the “reduction in sensitivity compared with median IC50 of type B viruses” value [3] was 6-7 fold. The “effect of mutation on sensitivity” value [4] was “did not reduce sensitivity”.
